# Results reported in patent US20230257710A1, “NATURAL KILLER CELL HAVING CONTROLLED ONCOLOGY-RELEATED GENE EXPRESSION, AND USE THEREOF” (SUNGKWANG MEDICAL FOUNDATION, priority 2020, published 2023).
# Test system: A2780cis xenograft
# Format: in vivo, NSG mice
# Description: The efficacy was evaluated by confirming the growth inhibitory effect of natural killer cells (pNK) cultured by the culture method according to one aspect as an immuno-anticancer agent. An A2780cis xenograft mouse model was prepared by subcutaneously injecting the […] ovarian cancer cell line A2780cis into the fat pad of 7-week-old NSG mice in an amount of 2×10^6 (cells). After ovarian cancer cell lines were injected, mice with tumors were randomly grouped on day 3: a group treated with intraperitoneal injection of cisplatin at 1 mg/kg, once/week; a group treated with intravenous injected of natural killer cells according to one aspect in the number of 1×10^7 (cells), 2 times/week; and a control group treated with the injection of PBS (FIG. 8). After injection of the ovarian cancer cell line, tumor size and body weight were measured daily.
smiles,measurement,setting,value
N.N.[Cl][Pt][Cl] [cisplatin],cancer cell growth inhibitory effect,"compared to the control group (PBS), A2780cis xenograft NSG mice",about 55%
same,change in body weight,"mouse, in vivo",no significant change in body weight
